Assay results as given in patent US9468661B2, “Pyrrolidine derivatives and their use as complement pathway modulators” (priority 2012, dated 2016).

The molecules below were run against human factor D (Homo sapiens (Human), UniProt P00746) (assay: biochemical). Conditions: Factor D inhibition data using Method 1; recombinant human factor D 10 nM, substrate Z-Lys-thiobenzyl, fluorescence; read-out: IC50.
Sequence of human factor D (P00746 26-253): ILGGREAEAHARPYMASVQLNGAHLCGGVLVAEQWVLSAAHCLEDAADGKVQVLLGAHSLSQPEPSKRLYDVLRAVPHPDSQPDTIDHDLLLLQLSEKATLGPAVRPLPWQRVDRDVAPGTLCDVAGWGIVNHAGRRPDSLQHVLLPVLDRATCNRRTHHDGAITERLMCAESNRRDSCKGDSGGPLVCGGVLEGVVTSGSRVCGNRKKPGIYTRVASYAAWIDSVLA
Assay type: biochemical
Procedure: Human Complement Factor D Assay: Method 1
Recombinant human factor D (expressed in E. coli and purified using standard methods) at 10 nM concentration is incubated with test compound at various concentrations for 1 hour at room temperature in 0.1 M Hepes buffer, pH 7.5, containing 1 mM MgCl2, 1 M NaCl and 0.05% CHAPS. A synthetic substrate Z-Lys-thiobenzyl and 2,4-dinitrobenzenesulfonyl-fluoresceine are added to final concentrations of 200 μM and 25 μM, respectively. The increase in fluorescence is recorded at excitation of 485 nm and emission at 535 nm in a microplate spectrofluorimeter. IC50 values are calculated from percentage of inhibition of complement factor D-activity as a function of test compound concentration.
In the case of `CC(=O)c1nn(CC(=O)N2[C@@H]3C[C@@H]3C[C@H]2C(=O)NC[C@H]2CC2(Cl)Cl)c2ccc(CCc3ncccn3)cc12` [Example 43, (1R,3S,5R)-2-{2-[3-Acetyl-5-(2-pyrimidin-2-yl-ethyl)-indazol-1-yl]-acetyl}-2-aza-bicyclo[3.1.0] hexane-3-carboxylic acid ((R)-2,2-dichloro-cyclopropylmethyl)-amide], the IC50 is reported as 0.071 µM. Work on `Cc1nccc2c(C(N)=O)nn(CC(=O)N3[C@@H]4C[C@@H]4C[C@H]3C(=O)NC[C@H]3CC3(Cl)Cl)c12` [Example 112, 1-(2-{(1R,3S,5R)-3-[((R)-2,2-Dichloro-cyclopropylmethyl)-carbamoyl]-2-aza-bicyclo[3.1.0]hex-2-yl}-2-oxo-ethyl)-7-methyl-1H-pyrazolo[3,4-c]pyridine-3-carboxylic acid amide] yielded an IC50 of 0.188 µM. For `NC(=O)c1nn(CC(=O)N2[C@@H]3C[C@@H]3C[C@H]2C(=O)NC[C@H]2CC2(Cl)Cl)c2ccccc12` [Example 31, 1-(2-{(1R,3S,5R)-3-[((R)-2,2-Dichloro-cyclopropylmethyl)-carbamoyl]-2-aza-bicyclo[3.1.0]hex-2-yl}-2-oxo-ethyl)-1H-indazole-3-carboxylic acid amide], the IC50 was 0.032 µM. In the case of `CC(=O)c1nn(CC(=O)N2[C@@H]3C[C@@H]3C[C@H]2C(=O)NC[C@@H]2CC2(Cl)Cl)c2ncccc12` [Example 68, (1R,3S,5R)-2-[2-(3-Acetyl-pyrazolo[3,4-b]pyridin-1-yl)-acetyl]-2-aza-bicyclo[3.1.0] hexane-3-carboxylic acid ((S)-2,2-dichloro-cyclopropylmethyl)-amide], the IC50 is reported as 0.177 µM. In the case of `NC(=O)c1nn(CC(=O)N2[C@@H]3C[C@@H]3C[C@H]2C(=O)NCC2CC2(F)F)c2ccccc12` (stereo partly drawn) [Example 67, 1-(2-{(1R,3S,5R)-3-[(2,2-Difluoro-cyclopropylmethyl)-carbamoyl]-2-aza-bicyclo[3.1.0]hex-2-yl}-2-oxo-ethyl)-1H-indazole-3-carboxylic acid amide], the IC50 is reported as 0.428 µM. `CO[C@H]1[C@@H](C(=O)NC[C@H]2CC2(Cl)Cl)N(C(=O)Cn2nc(C(N)=O)c3ccc(C)cc32)C[C@@H]1F` [Example 48, 1-(2-{(2S,3S,4S)-2-[((R)-2,2-Dichloro-cyclopropylmethyl)-carbamoyl]-4-fluoro-3-methoxy-pyrrolidin-1-yl}-2-oxo-ethyl)-6-methyl-1H-indazole-3-carboxylic acid amide] showed an IC50 of 0.027 µM. Work on `CC(=O)c1nn(CC(=O)N2[C@@H]3C[C@@H]3C[C@H]2C(=O)NC[C@H]2CC2(Cl)Cl)c2ccc(OCc3nccc(C)n3)cc12` [Example 56, (1R,3S,5R)-2-{2-[3-Acetyl-5-(4-methyl-pyrimidin-2-ylmethoxy)-indazol-1-yl]-acetyl}-2-aza-bicyclo[3.1.0]hexane-3-carboxylic acid ((R)-2,2-dichloro-cyclopropylmethyl)-amide] yielded an IC50 of 0.008 µM. `CC(=O)c1nn(CC(=O)N2[C@@H]3C[C@@H]3C[C@H]2C(=O)N[C@H](C)[C@H]2CC2(Cl)Cl)c2ccc(OCc3cc(C)[nH]n3)cc12` [Example 64, (1R,3S,5R)-2-{2-[3-Acetyl-5-(5-methyl-1H-pyrazol-3-ylmethoxy)-indazol-1-yl]-acetyl}-2-aza-bicyclo[3.1.0]hexane-3-carboxylic acid [(R)-1-((R)-2,2-dichloro-cyclopropyl)-ethyl]-amide] was tested, and the IC50 was 0.003 µM. `CC1CCCC(CNC(=O)[C@@H]2C[C@H]3C[C@H]3N2C(=O)Cn2nc(C(N)=O)c3ccncc32)C1` (single isomer, unassigned; dia 4) [Example 118] gave an IC50 of 0.159 µM. `CC1CCCC1CNC(=O)[C@@H]1C[C@H]2C[C@H]2N1C(=O)Cn1nc(C(N)=O)c2ccncc21` (single isomer, unassigned; dia 3) [Example 87] showed an IC50 of 0.459 µM. `CC(=O)c1nn(CC(=O)N2[C@@H]3C[C@@H]3C[C@H]2C(=O)NCC2(C)CC2(Cl)Cl)c2cnccc12` (stereo partly drawn) [Example 13, (1R,3S,5R)-2-[2-(3-Acetyl-pyrazolo[3,4-c]pyridin-1-yl)-acetyl]-2-aza-bicyclo[3.1.0] hexane-3-carboxylic acid (2,2-dichloro-1-methyl-cyclopropylmethyl)-amide] gave an IC50 of 0.958 µM. `CC(=O)c1nn(CC(=O)N2[C@@H]3C[C@@H]3C[C@H]2C(=O)NCC2CCCC2(C)C)c2cnccc12` (single isomer, unassigned; dia 1) [Example 19] gave an IC50 of 1.61 µM. In the case of `CC(=O)c1nn(CC(=O)N2[C@@H]3C[C@@H]3C[C@H]2C(=O)NCC2CCCC(C)C2)c2cnccc12` (single isomer, unassigned; dia 1) [Example 119], the IC50 is reported as 0.188 µM. `NC(=O)c1nn(CC(=O)N2[C@H](C(=O)NC[C@H]3CC3(Cl)Cl)C[C@@]3(CO)C[C@@H]23)c2ccccc12` [Example 52, 1-(2-{(1R,3S,5S)-3-[((R)-2,2-Dichloro-cyclopropylmethyl)-carbamoyl]-5-hydroxymethyl-2-aza-bicyclo[3.1.0]hex-2-yl}-2-oxo-ethyl)-1H-indazole-3-carboxylic acid amide] showed an IC50 of 0.056 µM. Work on `C[C@@H](NC(=O)[C@@H]1C[C@H]2C[C@H]2N1C(=O)Cn1nc(C(N)=O)c2ccc(Cl)cc21)[C@H]1CC1(Cl)Cl` [Example 49, 6-Chloro-1-(2-{(1R,3S,5R)-3-[(R)-1-((R)-2,2-dichloro-cyclopropyl)-ethylcarbamoyl]-2-aza-bicyclo[3.1.0]hex-2-yl}-2-oxo-ethyl)-1H-indazole-3-carboxylic acid amide] yielded an IC50 of 0.004 µM. For `Cc1ccc2c(C(N)=O)nn(CC(=O)N3[C@@H]4C[C@@H]4C[C@H]3C(=O)NC[C@H]3CC3(Cl)Cl)c2c1` [Example 113, 1-(2-{(1R,3S,5R)-3-[((R)-2,2-Dichloro-cyclopropylmethyl)-carbamoyl]-2-aza-bicyclo[3.1.0]hex-2-yl}-2-oxo-ethyl)-6-methyl-1H-indazole-3-carboxylic acid amide], the IC50 was 0.074 µM. `CC1CCCC(CNC(=O)[C@@H]2C[C@H]3C[C@H]3N2C(=O)Cn2nc(C(N)=O)c3ccncc32)C1` (single isomer, unassigned; dia 2) [Example 116] was tested, and the IC50 was 0.445 µM.

Same assay, conditions: IC50, Factor D inhibition data using Method 1; recombinant human factor D 10 nM, substrate Z-Lys-thiobenzyl, fluorescence
`CC1C(CNC(=O)[C@@H]2C[C@H]3C[C@H]3N2C(=O)Cn2nc(C(N)=O)c3ccncc32)C1(Cl)Cl` (single isomer, unassigned; dia 1) [Example 81, 1-(2-{(1R,3S,5R)-3-[((1R,3R) or (1S,3R)-2,2-Dichloro-3-methyl-cyclopropylmethyl)-carbamoyl]-2-aza-bicyclo[3.1.0]hex-2-yI}-2-oxo-ethyl)-1H-pyrazolo[3,4-c]pyridine-3-carboxylic acid amide-Dia 1] showed an IC50 of 0.021 µM. With `CC(=O)c1nn(CC(=O)N2[C@@H]3C[C@@H]3C[C@H]2C(=O)N[C@H](C)[C@H]2CC2(Cl)Cl)c2ccc(OCc3ncccn3)cc12` [Example 32, (1R,3S,5R)-2-{2-[3-Acetyl-5-(pyrimidin-2-ylmethoxy)-indazol-1-yl]-acetyl}-2-aza-bicyclo[3.1.0]hexane-3-carboxylic acid [(R)-1-((R)-2,2-dichloro-cyclopropyl)-ethyl]-amide-Dia 1] the IC50 was 0.006 µM. `CC1C(CNC(=O)[C@@H]2C[C@H]3C[C@H]3N2C(=O)Cn2nc(C(N)=O)c3ccccc32)C1(Cl)Cl` (single isomer, unassigned; dia 2) [Example 78, 1-(2-{(1R,3S,5R)-3-[((1R,3S) or (1S,3R)-2,2-Dichloro-3-methyl-cyclopropylmethyl)-carbamoyl]-2-aza-bicyclo[3.1.0]hex-2-yl}-2-oxo-ethyl)-1H-indazole-3-carboxylic acid amide-Dia 2] gave an IC50 of 0.062 µM.
